Patent US9868737B2, “Pyridino[1,2-A]pyrimidone analogue used as MTOR/P13K inhibitor” (CISEN PHARMACEUTICAL CO., LTD., priority 2014, dated 2018)
Read-outs that look alike come from different tables or passages of the source.

Tested on: MCF-7 cells
Assay: In vitro test of cell activity (MCF-7 cells, insulin stimulation, ELISA-One fluorescence)
Assay type: cell-based
Details: Homo sapiens, MCF7, MCF-7 cells; for inhibition at 0.5 µM: conc. 0.5 μM; for inhibition at 1 µM: conc. 1 μM; for inhibition at 0.25 µM: conc. 0.25 μM
Procedure: Example In Vitro Tests of Cell Activities Experimental Steps and Methods:
1) MCF-7 cells were inoculated at the density of 2.5×10^4 cells/well into 96-well plates (the culture medium used should be a complete culture medium containing 10% FBS).
2) On the next day, the medium in each well was drawn out. A certain concentration (preliminary screening) or a series of concentration (IC50 test) of compounds were dissolved in a culture medium without serum and added to the 96-well plates to culture cells for 2 hours.
3) Insulin was dissolved in a culture medium without serum, added to the cultured cells and incubated for 30 minutes, wherein the final concentration of insulin was […].
4) A lysis solution was prepared according to the following method during the waiting period for the reaction:
a) Enhancer solution was removed from the refrigerator to melt in advance.
b) Enhancer solution was diluted 10 times with the 5× Lysis Buffer to give a concentrated lysis solution.
c) The concentrated lysis solution was diluted 5 times with double distilled water to give the lysis solution.
5) The medium in each well was completely removed and each well was quickly rinsed with PBS once.
6) 150 μl of the freshly prepared lysis solution was added to each well and shaked at room temperature for 10 minutes.
7) After confirming that all cells were detached, the lysis solution together with the cell fragments was transferred into a 1.5 ml tube.
8) The tube was shaked on vortes mixer to make the lysis solution and cells mix completely and then the mixture was centrifugated at 4° C. under 12000 g for 10 minutes.
9) The number of strips of ELISA-one micro-well plate that is required was calculated. The needless strips were removed from the frame, put back into the storage bag and sealed. Before the strips of micro-well plate were used, 200 μl of double distilled water was used to rinse each well to remove preservative.
10) 50 μl of antibody mixture was added to each well. (The antibody mixture solution was prepared by mixing the medium antibody reagent and the enzyme labeled antibody reagent with an equal proportion. The preparation of antibody mixture didn't need vortex.)
11) 25 μl of cell lysates was added to each well of ELISA-One micro-well plate. The micro-well plate was covered with adhesive sealing film and incubated on a micro-well plate oscillation instrument at room temperature for 1 hour.
12) Each well was rinsed with 150 μl of 1× rinsing buffer 3 times. After the last rinsing, the rinsing buffer in the well was completely removed. If necessary, the 1× rinsing buffer could be allowed to stay in the micro-well plate for up to 30 minutes so that the substrate mixed solution could be prepared during such time period.
13) The substrate mixed solution should be prepared just before each use, 10 μl of the substrate mixed solution was added to each well and the micro-well plate was sealed with tin-foil and incubated on the micro-well plate oscillation instrument at room temperature for 10 minutes.
14) 10 μl of stop solution was added to each well and mixed slightly (5-10 seconds) on the micro-well plate oscillation instrument.
15) The corresponding ELISA-One filter group was assembled and used to read the fluorescence signal intensity.

| SMILES | IC50 (read-out: IC50 p-AKT) [nM] | inhibition at 0.5 µM (read-out: % inhibition AKT) [%] | inhibition at 0.5 µM (read-out: % inhibition p70s6k) [%] | other results |
| --- | --- | --- | --- | --- |
| COc1ncc(-c2ccc3nccc(=O)n3n2)cc1NS(=O)(=O)c1ccccc1F [compound 72] |  | 51.1 | 10.2 |  |
| COc1ncc(-c2cn3c(=O)ccnc3cn2)cc1NS(=O)(=O)c1cccc(F)c1 [compound 42] |  | 9.1 | 5.1 |  |
| COc1ncc(-c2ccc3nccc(=O)n3c2)cc1NS(=O)(=O)c1ccc(C#N)cc1 [compound 21] | 50 to 100 |  |  | inhibition at 1 µM (read-out: % inhibition AKT): 94.1%; inhibition at 1 µM (read-out: % inhibition p70s6k): 91.2%; IC50 (read-out: IC50 p-p70S6K): 100 to 250 nM |
| COc1ncc(-c2ccc3ncc(NS(C)(=O)=O)c(=O)n3c2)cc1NS(=O)(=O)c1ccc(F)cc1F [compound 98] | > 250 |  |  |  |
| COc1ncc(-c2ccc3ncc(N)c(=O)n3c2)cc1NS(=O)(=O)c1sccc1C [compound 92] | ≤ 50 |  |  |  |
| COc1ncc(-c2cn3c(=O)ccnc3cc2C)cc1NS(=O)(=O)c1c(F)cccc1F [compound 125] |  | 23.5 | 5 |  |
| COc1ncc(-c2ccc3ncc(N)c(=O)n3c2)cc1NS(=O)(=O)c1ccccc1F [compound 90] | ≤ 50 | 92.7 | 87.9 | IC50 (read-out: IC50 p-p70S6K): 100 to 250 nM |
| COc1ncc(-c2ccc3ncc(-n4ccc(C)n4)c(=O)n3c2)cc1NS(=O)(=O)c1ccc(F)cc1Cl [compound 219] |  |  |  | inhibition at 0.25 µM (read-out: % inhibition AKT): 41.7%; inhibition at 0.25 µM (read-out: % inhibition p70s6k): 13.4% |
| COc1ncc(-c2ccc3nccc(=O)n3c2)cc1NS(=O)(=O)c1cccc(F)c1 [compound 3] | 50 to 100 |  |  | inhibition at 1 µM (read-out: % inhibition AKT): 95.9%; inhibition at 1 µM (read-out: % inhibition p70s6k): 52.4%; IC50 (read-out: IC50 p-p70S6K): 50 to 100 nM |
| COc1ncc(-c2ccc3ncc(F)c(=O)n3c2)cc1NS(=O)(=O)c1cc(F)ccc1F [compound 65] | ≤ 50 | 84.8 | 89.7 | IC50 (read-out: IC50 p-p70S6K): 50 to 100 nM |
| COc1ncc(-c2ccc3nccc(=O)n3n2)cc1NS(=O)(=O)c1c(F)cccc1F [compound 73] |  | 40.5 | -2.1 |  |
| CCOc1ncc(-c2ccc3nccc(=O)n3c2)cc1NS(=O)(=O)c1ccc(F)cc1F [compound 15] |  |  |  | inhibition at 1 µM (read-out: % inhibition AKT): 93.3%; inhibition at 1 µM (read-out: % inhibition p70s6k): 91.7% |
| COc1ncc(-c2ccc3nccc(=O)n3c2)cc1NS(=O)(=O)C1CC1 [compound 9] |  |  |  | inhibition at 1 µM (read-out: % inhibition AKT): 76%; inhibition at 1 µM (read-out: % inhibition p70s6k): 38.4% |
| COc1ncc(-c2ccc3ncc(O)c(=O)n3c2)cc1NS(=O)(=O)c1ccc(F)cc1F [compound 101, 2,4-difluoro-N-(5-(3-hydroxy-4-oxo-4H-pyrido[1,2-a]pyrimidin-7-yl)-2-methoxypyridin-3-yl) benzsulfamide] |  |  |  | inhibition at 0.25 µM (read-out: % inhibition AKT): 25%; inhibition at 0.25 µM (read-out: % inhibition p70s6k): 8.6% |
| COc1ncc(-c2cn3c(=O)ccnc3cn2)cc1NS(=O)(=O)c1ccccc1F [compound 44] |  | 6.3 | 4.7 |  |
| COc1ncc(-c2ccc3nccc(=O)n3c2)cc1NS(=O)(=O)c1ccc(F)cc1 [compound 11] | 50 to 100 |  |  | inhibition at 1 µM (read-out: % inhibition AKT): 94.7%; inhibition at 1 µM (read-out: % inhibition p70s6k): 52.3%; IC50 (read-out: IC50 p-p70S6K): 100 to 250 nM |

Second part, led by results:

| IC50 (read-out: IC50 p-AKT) [nM] | SMILES | inhibition at 0.5 µM (read-out: % inhibition AKT) [%] | inhibition at 0.5 µM (read-out: % inhibition p70s6k) [%] | other results |
| --- | --- | --- | --- | --- |
| ≤ 50 | COCCOc1cnc2ccc(-c3cnc(OC)c(NS(=O)(=O)c4ccc(F)cc4Br)c3)cn2c1=O [compound 279] |  |  |  |
| ≤ 50 | CCc1cc(F)ccc1S(=O)(=O)Nc1cc(-c2ccc3ncc(OCCOC)c(=O)n3c2)cnc1OC [compound 280] |  |  |  |
| ≤ 50 | COc1ncc(-c2ccc3ncc(Cl)c(=O)n3c2)cc1NS(=O)(=O)c1ccccc1F [compound 137] | 93.3 | 87.1 | IC50 (read-out: IC50 p-p70S6K): 100 to 250 nM |
| > 250 | COCCCOc1ncc(-c2ccc3ncc(Cl)c(=O)n3c2)cc1NS(=O)(=O)c1ccc(F)cc1F [compound 232] |  |  |  |
| ≤ 50 | COc1ncc(-c2ccc3ncc(OCC(C)(C)OC)c(=O)n3c2)cc1NS(=O)(=O)c1sc(C)nc1C [compound 209] |  |  |  |
| 50 to 100 | COCCOc1cnc2ccc(-c3cnc(OC)c(NS(=O)(=O)c4ccc(F)c(F)c4F)c3)cn2c1=O [compound 274] |  |  |  |
| ≤ 50 | COCCOc1cnc2ccc(-c3cnc(OC)c(NS(=O)(=O)c4ccc(OC)nc4C)c3)cn2c1=O [compound 187] |  |  |  |
